The values that follow come from paper PMC8286840, “Identifying SARS-CoV-2 antiviral compounds by screening for small molecule inhibitors of Nsp3 papain-like protease” (Biochemical Journal, 2021).

The structures appear in SMILES notation. Where a name gives a salt, the structure may show the parent alone. Read-outs that look alike come from different tables or passages of the source. *1 amine or outer side, *2 acyl side, *3 side chain or, on linkers, in order; H or OH if unused. Where a SMILES comes first, the peptide text is derived from it. Bridges are numbered along the chain shown (N, C = ends). X1 = O=C(CCC[*:2])[*:1]

Test [1] deals with T1, SARS-CoV-2 PLpro (nsp3 1564–1878) (Severe acute respiratory syndrome coronavirus 2, UniProt P0DTD1). The test can be described thus: biochemical. Details: FRET-quenched peptide (Pro3) cleavage by PLpro, 10 min pre-incubation, slope over 20 min, normalised to no-compound control. To be noted: low concentration screen, read-out: % of control remaining.
For test [2], the target named is T1, SARS-CoV-2 PLpro (nsp3 1564–1878). As to the kind of experiment: biochemical. Details: FRET-quenched peptide (Pro3) cleavage by PLpro, 10 min pre-incubation, slope over 20 min, normalised to no-compound control. To be noted: high concentration screen, read-out: % of control remaining.

Turning to `C[C@H](CS)C(=O)N1CCC[C@H]1C(=O)O` [Captopril], the remaining activity at 1.25 µM in test [1] (Well no.=318) came out at 93.1%; in test [1] (Well no.=1915) it was 97.2%; in test [1] (Well no.=4135) it was 101%; in test [1] (Well no.=7412), 105%. In addition, the remaining activity at 3.75 µM was found to be 97% in test [2] (Well no.=318), 100% in test [2] (Well no.=1915), 98% in test [2] (Well no.=4135) and 106% in test [2] (Well no.=7412).
Turning to `C[N+](C)(C)CCOC(N)=O` [Carbachol], the remaining activity at 1.25 µM in test [1] (Well no.=32) was determined as 95.6%. In addition, the remaining activity at 3.75 µM in test [2] (Well no.=32) was found to be 99%.
For `CCCCC[C@H](O)/C=C/[C@@H]1[C@H]2C/C(=C/CCCC(=O)O)C[C@H]2C[C@H]1O` [Carbacyclin], in test [1] (Well no.=4529), the remaining activity at 1.25 µM amounted to 91.4%. In test [2] (Well no.=4529), the remaining activity at 3.75 µM was 95.8%.
As to `COC(=O)N/N=C/c1c[n+]([O-])c2ccccc2[n+]1[O-]` [Carbadox], the remaining activity at 1.25 µM in test [1] (Well no.=2211) was determined as 98.3%. Further, the remaining activity at 3.75 µM in test [2] (Well no.=2211) was determined as 93.2%.
On to `NC(=O)N1c2ccccc2C=Cc2ccccc21` [Carbamazepine], for which the remaining activity at 1.25 µM in test [1] (Well no.=270) turned out to be 96.8%; in test [1] (Well no.=2215) it was 97.8%. The values for the remaining activity at 3.75 µM in test [2] (Well no.=270) and in test [2] (Well no.=2215) were 94.9% and 95.8%, respectively.
`C[N+](C)(C)CCOC(N)=O` [Carbamoylcholine (chloride)]: the remaining activity at 1.25 µM in test [1] (Well no.=6757) came to 99.9%. In test [2] (Well no.=6757), the remaining activity at 3.75 µM worked out at 97.3%.
`CC(C[N+](C)(C)C)OC(N)=O` (stereo not drawn) [Carbamyl-beta-methylcholine]: the remaining activity at 1.25 µM in test [1] (Well no.=1736) came to 95.2%. Besides, the remaining activity at 3.75 µM in test [2] (Well no.=1736) came out at 94.9%.
Take `C[N+](C)(C)CCOC(N)=O` [Carbamylcholine]: in test [1] (Well no.=1734), the remaining activity at 1.25 µM worked out at 99.8%. Also, the remaining activity at 3.75 µM in test [2] (Well no.=1734) is 102%.
On to `CN1C2=CC(=O)/C(=N\NC(N)=O)C=C2CC1S(=O)(=O)O` (centres unmarked) [Carbazochrome sodium sulfonate], for which the remaining activity at 1.25 µM in test [1] (Well no.=5261) was found to be 96.5%. For the same compound, the remaining activity at 3.75 µM in test [2] (Well no.=5261) stood at 95%.
For `CC1(C)S[C@@H]2[C@H](NC(=O)C(C(=O)O)c3ccccc3)C(=O)N2[C@H]1C(=O)O` (some centres unmarked) [Carbenicillin disodium], in test [1] (Well no.=5030), the remaining activity at 1.25 µM came out at 96.4%. Besides, in test [2] (Well no.=5030), the remaining activity at 3.75 µM was 96.8%.
In the case of `CCN(CC)CCOCCOC(=O)C1(c2ccccc2)CCCC1` [Carbetapentane citrate], the remaining activity at 1.25 µM in test [1] (Well no.=368) was determined as 90.8%. In test [2] (Well no.=368), the remaining activity at 3.75 µM is 92.5%.
As to `CC[C@H](C)[C@@H]1NC(=O)[C@H](Cc2ccc(OC)cc2)NC(=O)CCCSC[C@@H](C(=O)N2CCC[C@H]2C(=O)N[C@@H](CC(C)C)C(=O)NCC(N)=O)NC(=O)[C@H](CC(N)=O)NC(=O)[C@H](CCC(N)=O)NC1=O` [Carbetocin] (Y(Me)IQNCPLG-NH2; linker N-5 via X1), the remaining activity at 1.25 µM in test [1] (Well no.=8293) turned out to be 102%. Also, in test [2] (Well no.=8293), the remaining activity at 3.75 µM came out at 101%.
Regarding `CCOC(=O)n1ccn(C)c1=S` [Carbimazole], the remaining activity at 1.25 µM in test [1] (Well no.=5124) stood at 104%. For the same compound, the remaining activity at 3.75 µM in test [2] (Well no.=5124) came out at 105%.
On to `NC(=O)c1nnn(Cc2cc(Cl)c(C(=O)c3ccc(Cl)cc3)c(Cl)c2)c1N` [Carboxyamidotriazole], for which the remaining activity at 1.25 µM in test [1] (Well no.=5819) worked out at 94.7%. Also, the remaining activity at 3.75 µM in test [2] (Well no.=5819) was 89.8%.
On to `NCCC(=O)NCCc1c[nH]cn1` [Carcinine dihydrochloride], for which the remaining activity at 1.25 µM in test [1] (Well no.=237) amounted to 95.2%. Further, the remaining activity at 3.75 µM in test [2] (Well no.=237) worked out at 97.8%.
Consider `COc1ccc(-c2nn3c(-c4ccccn4)nnc3s2)cc1OC` [Cardionogen-2], for which the remaining activity at 1.25 µM in test [1] (Well no.=5937) is 102%. Further, the remaining activity at 3.75 µM in test [2] (Well no.=5937) amounted to 99.4%.
On to `CC(C)C[C@H](NC(=O)[C@H](CCc1ccccc1)NC(=O)CN1CCOCC1)C(=O)N[C@@H](Cc1ccccc1)C(=O)N[C@@H](CC(C)C)C(=O)[C@@]1(C)CO1` [Carfilzomib (PR-171)], for which the remaining activity at 1.25 µM in test [1] (Well no.=5173) was determined as 103%. In test [2] (Well no.=5173), the remaining activity at 3.75 µM came out at 97.1%.
As for `NC(=O)N[C@@H](CCC(=O)O)C(=O)O` [Carglumic Acid], the remaining activity at 1.25 µM in test [1] (Well no.=7594) was found to be 99.7%. The remaining activity at 3.75 µM in test [2] (Well no.=7594) worked out at 102%.
Turning to `CN(C)C(=O)N[C@H]1CC[C@H](CCN2CCN(c3cccc(Cl)c3Cl)CC2)CC1` [Cariprazine (hydrochloride)], the remaining activity at 1.25 µM in test [1] (Well no.=6661) worked out at 108%. Besides, in test [2] (Well no.=6661), the remaining activity at 3.75 µM is 103%.
In the case of `CCCC(C)(COC(N)=O)COC(=O)NC(C)C` (centres unmarked) [Carisoprodol], in test [1] (Well no.=380), the remaining activity at 1.25 µM was determined as 95.8%. Moreover, the remaining activity at 3.75 µM in test [2] (Well no.=380) came to 95.3%.
Turning to `Cc1c(C(=O)O)c(O)cc2c1C(=O)c1c(O)c([C@@H]3O[C@H](CO)[C@@H](O)[C@H](O)[C@H]3O)c(O)c(O)c1C2=O` [Carminic acid], in test [1] (Well no.=3101), the remaining activity at 1.25 µM is 102%. Further, the remaining activity at 3.75 µM in test [2] (Well no.=3101) is 103%.
Consider `O=NN(CCCl)C(=O)NCCCl` [Carmustine], for which the remaining activity at 1.25 µM in test [1] (Well no.=137) was found to be 102%. Besides, in test [2] (Well no.=137), the remaining activity at 3.75 µM was found to be 102%.
For `CC(C)c1cc2c(c(O)c1O)[C@@]1(C(=O)O)CCCC(C)(C)[C@@H]1CC2` [Carnosic acid], in test [1] (Well no.=4038), the remaining activity at 1.25 µM is 101%. Moreover, the remaining activity at 3.75 µM in test [2] (Well no.=4038) was 104%.
Regarding `CC(C)(C)NCC(O)COc1cccc2c1CCC(=O)N2` (centres unmarked) [Carteolol (hydrochloride)], the remaining activity at 1.25 µM in test [1] (Well no.=7623) came out at 101%. Further, the remaining activity at 3.75 µM in test [2] (Well no.=7623) came to 97.2%.
Consider `COc1ccccc1OCCNCC(O)COc1cccc2[nH]c3ccccc3c12` (centres unmarked) [Carvedilol], for which the remaining activity at 1.25 µM in test [1] (Well no.=1569) came to 99.6%; in test [1] (Well no.=4051), 103%; in test [1] (Well no.=6702) it was 97.7%. Moreover, the remaining activity at 3.75 µM was 103% in test [2] (Well no.=1569), 104% in test [2] (Well no.=4051) and 97.8% in test [2] (Well no.=6702).
Consider `NC(=O)c1ccc(-c2nc(-c3ccc4c(c3)OCCO4)c(-c3ccccn3)[nH]2)cc1` [Casein Kinase I Inhibitor, D4476], for which the remaining activity at 1.25 µM in test [1] (Well no.=2372) stood at 102%. For the same compound, in test [2] (Well no.=2372), the remaining activity at 3.75 µM is 99.2%.
In the case of `O=C(O)C=Cc1cc(Br)c(Br)c(Br)c1Br` [Casein Kinase II Inhibitor III, TBCA], the remaining activity at 1.25 µM in test [1] (Well no.=2374) came out at 102%. The remaining activity at 3.75 µM in test [2] (Well no.=2374) amounted to 104%.
For the compound `COc1cc(Nc2ncc3ccn(-c4cccc(CCC#N)c4)c3n2)cc(OC)c1OC` [Casein Kinase II Inhibitor IV], the remaining activity at 1.25 µM in test [1] (Well no.=2381) came out at 104%. Further, in test [2] (Well no.=2381), the remaining activity at 3.75 µM was determined as 105%.
